{"source": "patent US20100151008A1", "about": "“Preparations and Methods for Textile and or Fiber Surface Finishing, Surface Finished Articles Prepared Thereby, and Uses Therefor” (Cognis IP Management GmbH, priority 2003, published 2010)", "origin": "cited, not measured here"}
{"smiles": "CC(C)CCC[C@@H](C)[C@H]1CC[C@H]2[C@@H]3CC=C4C[C@@H](O)CC[C@]4(C)[C@H]3CC[C@]12C", "note": "[cholesterol, 5-cholesten-3b-ol]", "values": [{"measurement": "solubility in alcohol", "setting": "alcohol", "result": "only sparingly when cold, but more readily after heating"}, {"measurement": "solubility in ether, benzene and petroleum ether", "setting": "ether, benzene and petroleum ether", "result": "soluble"}, {"measurement": "solubility in water", "setting": "water", "result": "virtually insoluble"}]}
